Test results taken from PubChem BioAssay AID2060882 (Molecular Pharmacology Branch, DTP, NCI, 2025).

System: 898857-211-R-J1-PDC complex spheroids, growth % test/control
Experiment: Anticancer human tumor 898857-211-R-J1-PDC patient-derived melanoma cell line growth inhibition [RAS]
Conditions: for IC50: curve of first compound; for viability, T/C: stronger effect = lower value
Source text: RAS pathway inhibitors in Combinations in Complex Spheroids
A high-throughput screen of multi-cell type tumor spheroids was designed to identify active combinations of RAS pathway inhibitors and targeted small molecules. Complex spheroids include a stromal component modeled by human endothelial cells (HUVEC) and fibroblasts modeled by human mesenchymal stem cells (MSCs). The concentration ranges selected for each drug and investigational agent were based upon clinically achievable concentrations if the clinical Cmax of the agent was known.
Compounds. The drugs and investigational agents: abemaciclib (NSC768073), cobimetinib (NSC768068), divarasib (GDC6063, NSC841802), docetaxel (NSC628503), GDC-1971 (RLY-1971, NSC841576), gemcitabine (NSC613327), inavolisib (NSC800729), ipatasertib (NSC767898), KB-0742 (NSC834161), MRTX-1133 (NSC836407), osimertinib (NSC779217), RMC-4630 (NSC839698), RMC-6236 (NSC851965), RMC-6291 (NSC852671), Ro-3306 (NSC812927), sapanisertib (NSC764658), SN-38 (NSC673596), staurosporine (NSC755774), SY5609 (NSC837396), and tovorafenib (DAY101, NSC766906), were obtained from the National Cancer Institute (NCI) Developmental Therapeutics Program Chemical Repository. The FDA-approved anticancer drug set is available from the NCI Developmental Therapeutics Program. […] The stock solutions were prepared in dimethyl sulfoxide (DMSO, Sigma-Aldrich, St. Louis, MO, cat. D2650) at 800-fold the tested concentration and stored at -70 degrees C prior to their use. All drugs and investigational agents were tested over a range starting from a high concentration at or near the clinical Cmax and decreasing in half-log increments. If the clinical Cmax for an agent had not been determined, the highest concentration tested was 10 microM.
Cell Culture. All cells were maintained in an incubator at 37 degrees C and 5% CO2 with 95% humidity. The PDC lines were cultured according to standard operating procedures established by the NCI PDMR. All PDCs were thawed and cultured in Matrigel-coated flasks prepared with a working solution of 1X Ham's F-12 nutrient mix, without supplementation (Invitrogen, Waltham, MA, cat. 11765054), 100 U/mL penicillin-streptomycin (Invitrogen, cat. 15140122), and 2.5% Matrigel (Corning Inc., Corning, NY, cat. 354248) for the first three passages. The 362531-283-R-J2-PDC and 782815-120-R-J1-PDC lines were cultured in 6C/Colon 1B media, which includes advanced DMEM/F-12 (Thermo Fisher Scientific, cat. 12634028), 10 mM HEPES (Thermo Fisher Scientific, cat. 15630080), 1X GlutaMAX supplement (Thermo Fisher Scientific, cat. 35050061), 0.1 mg/mL primocin (InvivoGen, San Diego, CA, cat. ant-pm-2), 10% defined fetal bovine serum, heat inactivated (HyClone Laboratories Inc., Logan, UT, cat. SH30070.03HI), 50% L-WRN conditioned media (ATCC, cat. CRL-3276), 1.25 mM N-Acetyl-L-cysteine (Sigma-Aldrich, cat. A9165), 10 mM nicotinamide (Sigma-Aldrich, cat. N0636), 1X B-27 supplement (Thermo Fisher Scientific, cat. 17504044), 1X N-2 supplement (Thermo Fisher Scientific, cat. 17502048), 50 ng/mL human EGF (Thermo Fisher Scientific, cat. PHG0311), and 10 microM Y-27632 dihydrochloride (Tocris Bioscience, cat. 1254). The K12877-001-R-J1-PDC line was cultured in 6I media, which includes all 6C/Colon 1B media plus 10 ng/mL human FGF-10 (PeproTech, cat. 100-26), 1 ng/mL human FGF-2 (PeproTech, cat. 100-18B), 1 µM prostaglandin E2 (Tocris Bioscience, cat. 2296), […] hydrocortisone (Sigma-Aldrich, cat. H4001), and […] bovine insulin (Sigma-Aldrich, cat. I6634). The K86415-001-R-J1-PDC line was cultured in 6D media, which includes all 6C/Colon 1B media components minus the L-WRN conditioned media. The 485176-168-R4-J1-PDC was cultured in PANC media, which includes all 6C/Colon 1B media plus 100 ng/mL human FGF-10 (PeproTech, cat. 100-26), 500 nM SB-431542 (Selleckchem, cat. S1067), and 10 nM gastrin (Tocris Bioscience, cat. 3006). […]
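Note: spheroids exposed to compound for seven days before readout.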
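Throughout, for viability, T/C: 100% = DMSO vehicle control wells.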

CC1(O)CCCC1n1c(=O)c(C(F)F)cc2cnc(NC3CCN(S(C)(=O)=O)CC3)nc21 (configuration not stated) + C#Cc1c(F)ccc2cc(O)cc(-c3ncc4c(N5CC6CCC(C5)N6)nc(OCC56CCCN5CC(F)C6)nc4c3F)c12
IC50 (second compound 0.0316 µM): 584 nM | IC50 (second compound 0.1 µM): 129 nM | IC50 (second compound 0.316 µM): 334 nM | IC50 (second compound 1 µM): 529 nM | IC50 (second compound 3.16 µM): 321 nM | IC50 (second compound 10 µM): < 31.6 nM | viability, T/C (second compound 0.0316 µM, first compound 0.0316 µM): 66.1% | viability, T/C (second compound 0.0316 µM, first compound 0.1 µM): 53.6% | viability, T/C (second compound 0.0316 µM, first compound 0.316 µM): 44.3% | viability, T/C (second compound 0.0316 µM, first compound 1 µM): 49.5% | viability, T/C (second compound 0.0316 µM, first compound 3.16 µM): 43.1% | viability, T/C (second compound 0.0316 µM, first compound 10 µM): 19.9% | viability, T/C (second compound 0.1 µM, first compound 0.0316 µM): 95% | viability, T/C (second compound 0.1 µM, first compound 0.1 µM): 52.6% | viability, T/C (second compound 0.1 µM, first compound 0.316 µM): 38.7% | viability, T/C (second compound 0.1 µM, first compound 1 µM): 43.4% | viability, T/C (second compound 0.1 µM, first compound 3.16 µM): 48.3% | viability, T/C (second compound 0.1 µM, first compound 10 µM): 23.4% | viability, T/C (second compound 0.316 µM, first compound 0.0316 µM): 76.8% | viability, T/C (second compound 0.316 µM, first compound 0.1 µM): 50.7% | viability, T/C (second compound 0.316 µM, first compound 0.316 µM): 41.8% | viability, T/C (second compound 0.316 µM, first compound 1 µM): 49.8% | viability, T/C (second compound 0.316 µM, first compound 3.16 µM): 43.5% | viability, T/C (second compound 0.316 µM, first compound 10 µM): 19.4% | viability, T/C (second compound 1 µM, first compound 0.0316 µM): 79% | viability, T/C (second compound 1 µM, first compound 0.1 µM): 57.6% | viability, T/C (second compound 1 µM, first compound 0.316 µM): 46.2% | viability, T/C (second compound 1 µM, first compound 1 µM): 46.8% | viability, T/C (second compound 1 µM, first compound 3.16 µM): 48.3% | viability, T/C (second compound 1 µM, first compound 10 µM): 18.1% | viability, T/C (second compound 3.16 µM, first compound 0.0316 µM): 88.7% | viability, T/C (second compound 3.16 µM, first compound 0.1 µM): 54.5% | viability, T/C (second compound 3.16 µM, first compound 0.316 µM): 49.4% | viability, T/C (second compound 3.16 µM, first compound 1 µM): 41.5% | viability, T/C (second compound 3.16 µM, first compound 3.16 µM): 46.7% | viability, T/C (second compound 3.16 µM, first compound 10 µM): 16.5% | viability, T/C (second compound 10 µM, first compound 0.0316 µM): 37.5% | viability, T/C (second compound 10 µM, first compound 0.1 µM): 24.6% | viability, T/C (second compound 10 µM, first compound 0.316 µM): 26.9% | viability, T/C (second compound 10 µM, first compound 1 µM): 27.1% | viability, T/C (second compound 10 µM, first compound 3.16 µM): 35.8% | viability, T/C (second compound 10 µM, first compound 10 µM): 2.8%
